Laboratory results taken from ChEMBL document CHEMBL3992552, “Mechanisms of action and structure-activity relationships of cytotoxic flavokawain derivatives” (Bioorg Med Chem, 2017).
Calls of active or inactive are those of the source. The calls are words filed in the database; no cut-off is given here.

Key:
Caco-2 [1] = test: Cytotoxicity against human Caco2 cells assessed as cell viability after 48 hrs by Hoechst 33342 staining based assay; type: functional; conditions: Caco-2, 48 h
[2] = Cytotoxicity against human fibroblasts assessed as cell survival at 50 uM after 48 hrs by Hoechst 33342 staining based assay relative to control; parameters: species or system Fibroblast; conditions: read-out: Survival
[3] = Selectivity index, ratio of IC50 for human fibroblasts to IC50 for human PC3 cells
HCT-116 [4] = test: Cytotoxicity against human HCT116 cells assessed as cell survival at 50 uM after 48 hrs by Hoechst 33342 staining based assay relative to control; type: functional; conditions: HCT-116, 48 h, read-out: Survival
Caco-2 [5] = test: Cell cycle arrest in human Caco2 cells assessed as accumulation at S phase at 25 uM measured after 48 hrs by Hoechst/BrdU staining based fluorescence assay (reference value: […]); type: functional
HCT-116 [6] = test: Cell cycle arrest in human HCT116 cells assessed as accumulation at G1/S phase by Hoechst staining based fluorescence assay; type: functional
PC-3 [7] = test: Induction of apoptosis in human PC3 cells harboring p53 mutant assessed as increase in late apoptosis at 2 times IC50 after 48 hrs by YoPro/propidium iodide/Hoechst staining based assay; type: functional, cell-based
NCI-H727 [8] = test: Cytotoxicity against human NCI-H727 cells assessed as cell survival at 50 uM after 48 hrs by Hoechst 33342 staining based assay relative to control; type: functional; conditions: NCI-H727, 48 h, read-out: Survival
MDA-MB-231 [9] = test: Cytotoxicity against human MDA-MB-231 cells assessed as cell viability after 48 hrs by Hoechst 33342 staining based assay; type: functional; conditions: MDA-MB-231, 48 h
Huh-7 [10] = test: Cell cycle arrest in human HuH7 cells assessed as accumulation at S phase at 25 uM measured after 48 hrs by Hoechst/BrdU staining based fluorescence assay (reference value: 44%); type: functional
Huh-7 [11] = test: Cell cycle arrest in human HuH7 cells assessed as accumulation at S phase at 10 uM measured after 48 hrs by Hoechst/BrdU staining based fluorescence assay (reference value: 44%); type: functional
[12] = Selectivity index, ratio of IC50 for human fibroblasts to IC50 for human HCT116 cells
Huh-7 [13] = test: Cytotoxicity against human HuH7 cells assessed as cell survival at 50 uM after 48 hrs by Hoechst 33342 staining based assay relative to control; type: functional; conditions: Huh-7, 48 h, read-out: Survival
MDA-MB-231 [14] = test: Induction of apoptosis in human MDA-MB-231 cells harboring p53 mutant assessed as increase in late apoptosis at 2 times IC50 after 24 hrs by YoPro/propidium iodide/Hoechst staining based assay; type: functional, cell-based
HCT-116 [15] = test: Cytotoxicity against human HCT116 cells assessed as cell viability after 48 hrs by Hoechst 33342 staining based assay; type: functional; conditions: HCT-116, 48 h
Caco-2 [16] = test: Cell cycle arrest in human Caco2 cells assessed as mitotic index at 25 uM measured after 48 hrs by Hoechst staining based fluorescence assay (reference value: 3.6); type: functional
[17] = Selectivity index, ratio of IC50 for human fibroblasts to IC50 for human NCI-H727 cells
[18] = Selectivity index, ratio of IC50 for human fibroblasts to IC50 for human RL cells
MCF7 [19] = test: Induction of apoptosis in human MCF7 cells harboring wild-type p53 assessed as upregulation of cyclinB1 measured after 18 hrs by Hoechst staining based assay; type: functional, cell-based
Caco-2 [20] = test: Cytotoxicity against human Caco2 cells assessed as cell survival at 50 uM after 48 hrs by Hoechst 33342 staining based assay relative to control; type: functional; conditions: Caco-2, 48 h, read-out: Survival
HaCaT [21] = test: Cytotoxicity against human HaCaT cells assessed as cell viability after 48 hrs by Hoechst 33342 staining based assay; type: functional
MDA-MB-231 [22] = test: Induction of apoptosis in human MDA-MB-231 cells harboring p53 mutant assessed as increase in early apoptosis at 2 times IC50 after 24 hrs by YoPro/propidium iodide/Hoechst staining based assay; type: functional, cell-based
[23] = Selectivity index, ratio of IC50 for human fibroblasts to IC50 for human HaCaT cells
HaCaT [24] = test: Cytotoxicity against human HaCaT cells assessed as cell survival at 50 uM after 48 hrs by Hoechst 33342 staining based assay relative to control; type: functional; conditions: read-out: Survival
NCI-H727 [25] = test: Cell cycle arrest in human NCI-H727 cells harboring p53 mutant assessed as accumulation at S phase at 25 uM measured after 48 hrs by Hoechst/BrdU staining based fluorescence assay (reference value: 40.3%); type: functional
HCT-116 [26] = test: Induction of apoptosis in human HCT116 cells harboring wild-type p53 assessed as increase in early apoptosis at 2 times IC50 after 48 hrs by YoPro/propidium iodide/Hoechst staining based assay; type: functional, cell-based
Caco-2 [27] = test: Cell cycle arrest in human Caco2 cells assessed as mitotic index at 10 uM measured after 48 hrs by Hoechst staining based fluorescence assay (reference value: 3.6); type: functional
HCT-116 [28] = test: Induction of apoptosis in human HCT116 cells harboring wild-type p53 assessed as increase in cleaved caspase3 at 2 times IC50 after 48 hrs by Hoechst staining based assay; type: functional, cell-based
PC-3 [29] = test: Cell cycle arrest in human PC3 cells harboring p53 mutant assessed as accumulation at S phase at 10 uM measured after 48 hrs by Hoechst/BrdU staining based fluorescence assay (reference value: 40.8%); type: functional
MDA-MB-231 [30] = test: Cell cycle arrest in human MDA-MB-231 cells assessed as accumulation at M phase by Hoechst staining based fluorescence assay; type: functional
NCI-H727 [31] = test: Cell cycle arrest in human NCI-H727 cells harboring p53 mutant assessed as mitotic index at 25 uM measured after 48 hrs by Hoechst staining based fluorescence assay (reference value: 1.1); type: functional
MCF7 [32] = test: Induction of apoptosis in human MCF7 cells harboring wild-type p53 assessed as increase in early apoptosis at 2 times IC50 after 24 hrs by YoPro/propidium iodide/Hoechst staining based assay; type: functional, cell-based
MDA-MB-231 [33] = test: Cell cycle arrest in human MDA-MB-231 cells harboring p53 mutant assessed as accumulation at S phase at 10 uM measured after 48 hrs by Hoechst/BrdU staining based fluorescence assay (reference value: 42.2%); type: functional
HaCaT [34] = test: Cell cycle arrest in human HaCaT cells harboring […] p53 assessed as accumulation at S phase at 10 uM measured after 48 hrs by Hoechst/BrdU staining based fluorescence assay (reference value: 52.3%); type: functional
NCI-H727 [35] = test: Cytotoxicity against human NCI-H727 cells assessed as cell viability after 48 hrs by Hoechst 33342 staining based assay; type: functional; conditions: NCI-H727, 48 h
PC-3 [36] = test: Cytotoxicity against human PC3 cells assessed as cell survival at 50 uM after 48 hrs by Hoechst 33342 staining based assay relative to control; type: functional; conditions: PC-3, 48 h, read-out: Survival
HCT-116 [37] = test: Cell cycle arrest in human HCT116 cells harboring wild-type p53 assessed as mitotic index at 10 uM measured after 48 hrs by Hoechst staining based fluorescence assay (reference value: 2.3); type: functional
MCF7 [38] = test: Cytotoxicity against human MCF7 assessed as cell viability after 48 hrs by Hoechst 33342 staining based assay; type: functional; conditions: MCF7, 48 h

| SMILES | IC50 (Caco-2 [1]) | viability at 48 h, 50 µM [2] | Ratio IC50 [3] | viability at 50 µM (HCT-116 [4]) | Activity (Caco-2 [5]) | Activity (HCT-116 [6]) | Activity (PC-3 [7]) | viability at 50 µM (NCI-H727 [8]) | IC50 (MDA-MB-231 [9]) | Activity (Huh-7 [10]) | Activity (Huh-7 [11]) | Ratio IC50 [12] | viability at 50 µM (Huh-7 [13]) | Activity (MDA-MB-231 [14]) | IC50 (HCT-116 [15]) | Activity_index (Caco-2 [16]) | Ratio IC50 [17] | Ratio IC50 [18] | Activity (MCF7 [19]) | viability at 50 µM (Caco-2 [20]) | other results |
| --- | --- | --- | --- | --- | --- | --- | --- | --- | --- | --- | --- | --- | --- | --- | --- | --- | --- | --- | --- | --- | --- |
| COc1cc(OC)c(C(=O)/C=C/c2ccccc2)c(OC)c1 | 5.8 µM | 74% | >9.8 | 1% | 24% | Active | Active | 1% | 12.9 µM | 0.7% | 45% | >7.2 | 6% | Active | 6.9 µM | 13 | >4.4 | >7.2 | Active | 5% | IC50 (HaCaT [21]): 7.2 µM; Activity (MDA-MB-231 [22]): Active; Ratio IC50 [23]: >6.9; viability at 50 µM (HaCaT [24]): 20%; Activity (NCI-H727 [25]): 4.5%; Activity (HCT-116 [26]): Active; Activity_index (Caco-2 [27]): 38.7; Activity (HCT-116 [28]): Active; Activity (PC-3 [29]): 24%; Activity (MDA-MB-231 [30]): Active; Activity_index (NCI-H727 [31]): 0.2; Activity (MCF7 [32]): Active; Activity (MDA-MB-231 [33]): 37%; Activity (HaCaT [34]): 18%; IC50 (NCI-H727 [35]): 11.4 µM; viability at 50 µM (PC-3 [36]): 29%; Activity_index (HCT-116 [37]): 2; IC50 (MCF7 [38]): 9.4 µM |
| COc1cccc(/C=C/C(=O)c2c(O)cc(OC)cc2OC)c1 | 11.2 µM | 44% | 3.7 | 0% | 34% | Active | Active | 1% | 13.2 µM | 8.5% | 56% | 3.5 | 13% | Active | 7.7 µM | 6.1 | 1.8 | 3 | Active | 1% | IC50 (HaCaT [21]): 10.4 µM; Activity (MDA-MB-231 [22]): Active; Ratio IC50 [23]: 2.6; viability at 50 µM (HaCaT [24]): 7%; Activity (NCI-H727 [25]): 1.4%; Activity (HCT-116 [26]): Active; Activity_index (Caco-2 [27]): 14.4; Activity (HCT-116 [28]): Active; Activity (PC-3 [29]): 39%; Activity (MDA-MB-231 [30]): Active; Activity_index (NCI-H727 [31]): 0.1; Activity (MCF7 [32]): Active; Activity (MDA-MB-231 [33]): 54%; Activity (HaCaT [34]): 49%; IC50 (NCI-H727 [35]): 14.8 µM; viability at 50 µM (PC-3 [36]): 22%; Activity_index (HCT-116 [37]): 1.2; IC50 (MCF7 [38]): 10.3 µM |
| COc1cccc(/C=C/C(=O)c2c(OC)cc(OC)cc2OC)c1 | 3.9 µM | 66% | >16.1 | 0% | 6% | Active | Active | 1% | 8.7 µM | 0.3% | 40% | >11.6 | 3% | Active | 4.3 µM | 4.8 | >6.1 | >8.5 | Active | 2% | IC50 (HaCaT [21]): 5.3 µM; Activity (MDA-MB-231 [22]): Active; Ratio IC50 [23]: >9.4; viability at 50 µM (HaCaT [24]): 18%; Activity (NCI-H727 [25]): 5.1%; Activity (HCT-116 [26]): Active; Activity_index (Caco-2 [27]): 36.8; Activity (HCT-116 [28]): Active; Activity (PC-3 [29]): 23%; Activity (MDA-MB-231 [30]): Active; Activity_index (NCI-H727 [31]): 0.1; Activity (MCF7 [32]): Active; Activity (MDA-MB-231 [33]): 43%; Activity (HaCaT [34]): 19%; IC50 (NCI-H727 [35]): 8.2 µM; viability at 50 µM (PC-3 [36]): 19%; Activity_index (HCT-116 [37]): 4.5; IC50 (MCF7 [38]): 9.4 µM |
